The target in the test is T1, tyrosine kinase of EGFR (TK-EGFR) (Homo sapiens, UniProt P00533).
T1 construct: tyrosine kinase of EGFR (TK-EGFR), recombinant protein from E. coli
Put plainly: ADP-Glo kinase assay with recombinant TK-EGFR, […] ATP. The format is biochemical. In general terms: ADP-Glo turns the ADP formed in a reaction into a luminescent signal.

T1 sequence (P00533 25-1210): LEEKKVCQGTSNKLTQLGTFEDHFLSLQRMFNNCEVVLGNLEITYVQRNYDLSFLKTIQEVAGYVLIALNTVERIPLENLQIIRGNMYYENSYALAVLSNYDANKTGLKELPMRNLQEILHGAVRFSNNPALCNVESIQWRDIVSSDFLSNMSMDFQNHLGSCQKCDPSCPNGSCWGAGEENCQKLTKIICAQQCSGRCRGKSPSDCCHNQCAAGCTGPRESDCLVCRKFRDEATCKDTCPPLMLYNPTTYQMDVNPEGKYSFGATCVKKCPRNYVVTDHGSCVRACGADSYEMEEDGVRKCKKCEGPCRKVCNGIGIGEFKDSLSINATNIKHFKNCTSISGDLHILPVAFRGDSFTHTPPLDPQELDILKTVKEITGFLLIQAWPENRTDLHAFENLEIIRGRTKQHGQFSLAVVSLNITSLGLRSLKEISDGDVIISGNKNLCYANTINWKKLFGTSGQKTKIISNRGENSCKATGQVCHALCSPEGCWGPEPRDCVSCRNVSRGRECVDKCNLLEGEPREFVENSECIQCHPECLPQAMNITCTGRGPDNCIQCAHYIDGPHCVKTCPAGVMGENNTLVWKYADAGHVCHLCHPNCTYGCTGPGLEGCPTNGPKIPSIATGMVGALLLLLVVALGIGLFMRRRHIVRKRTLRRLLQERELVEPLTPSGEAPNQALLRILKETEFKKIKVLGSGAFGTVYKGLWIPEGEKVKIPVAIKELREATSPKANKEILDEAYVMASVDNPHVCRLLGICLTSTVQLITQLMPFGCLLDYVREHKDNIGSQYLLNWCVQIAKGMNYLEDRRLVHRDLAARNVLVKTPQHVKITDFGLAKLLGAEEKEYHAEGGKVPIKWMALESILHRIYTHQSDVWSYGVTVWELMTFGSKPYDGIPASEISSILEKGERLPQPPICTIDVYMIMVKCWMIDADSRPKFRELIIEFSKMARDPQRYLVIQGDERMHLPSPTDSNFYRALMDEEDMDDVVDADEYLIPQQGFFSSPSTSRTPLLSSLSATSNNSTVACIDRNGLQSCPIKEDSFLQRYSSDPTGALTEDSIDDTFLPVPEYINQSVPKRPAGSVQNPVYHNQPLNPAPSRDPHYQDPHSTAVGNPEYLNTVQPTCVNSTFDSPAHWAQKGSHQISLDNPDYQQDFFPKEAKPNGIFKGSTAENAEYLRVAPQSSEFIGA

Usually IC50 stands for the concentration that gives 50% inhibition. Take `NS(=O)(=O)c1cccc(Nc2nccc(-c3ccccc3)n2)c1` [13f, 3-[(4-phenylpyrimidin-2-yl)amino] benzene-1-sulfonamide]: the IC50 was found to be 22.7 nM.
